Test results published in publication PMC12410356 (International Journal for Parasitology: Drugs and Drug …, 2025).
“And” between values parts separate entries of the source, which are not always exact repeats. Equal values may be shown once.

What was measured:
[1] = system: E. multilocularis metacestode vesicles; test: Metacestode vesicle viability assay (ATP, CellTiter-Glo); assay type: cell-based, Echinococcus multilocularis; conditions: 10 μM, 12 days
Protocol: Viability was assessed after 12 days using the same metacestode vesicles as for the PGI release assay. Triton X-100 was added to each well to a final concentration of 0.1 %. Subsequently the metacestode vesicles were broken mechanically and 50 μL of the supernatant was mixed with 50 μL of CellTiter-Glo® buffer (Promega, Dübendorf, Switzerland). Measurements were performed on a HIDEX Sense microplate reader.

[2] = system: E. multilocularis metacestode vesicles; test: Phosphoglucose isomerase (PGI) release assay (damage-marker release) on metacestode vesicles; assay type: cell-based, Echinococcus multilocularis; conditions: 10 μM; for PGI d5 (relative PGI release): 5 days; for PGI d12 (relative PGI release): 12 days
[3] = confirmation screen, triplicates, mean
[4] = overview screen, singlets, relative to DMSO control
[5] = overview screen, singlets, relative to 0.1 % Triton X-100, DMSO subtracted

Row | SMILES | Viability d12 (relative viability) [1, 3] | Viability d12 (relative viability) [1, 4] | PGI d5 (relative PGI release) [2, 3] | PGI d12 (relative PGI release) [2, 3] | PGI d5 (relative PGI release) [2, 5] | PGI d12 (relative PGI release) [2, 5]
1 | O=C(Nc1ccc(Cl)c(C(F)(F)F)c1)C(CCCl)C(=O)Nc1ccc(Cl)c(C(F)(F)F)c1 [MMV1580840] | 81.80% | 11.8566% | -0.17% | 0.36% | 14.7528% | 31.1069%
2 | O=S(=O)(NCB(O)O)c1cc2c(Cl)ccc(Cl)c2s1 [MMV1580841] |  | 81.7436% |  |  | -1.0927% | -26.0917%
3 | Clc1cc2nc(C3CCNCC3)n(Cc3ccc(CNCCc4c[nH]cn4)cc3)c2cc1Cl [MMV1580842] |  | 102.952% |  |  | -1.296% | -12.8721%
4 | C[Si]1(C)CCN(Cc2cc(-c3ccc(Cl)cc3)n(-c3ccc(Cl)cc3)n2)CC1 [MMV1580843] |  | 93.6293% |  |  | -0.6444% | -1.571%
5 | CCc1nc(N)nc(N)c1C#CC(C)c1cc(OC)cc(-c2ccncc2)c1 (stereo not drawn) [MMV1580844] | 84.60% | 16.6994% | -0.46% | 0.83% | -2.169% | 33.6502%
6 | CC(=O)N[C@H](C)C(=O)N[C@H](Cc1ccccc1)C(=O)O [MMV1580845] |  | 90.1704% |  |  | 0.2541% | -2.372%
7 | COc1ccc(SC(=O)N[C@H](CCC(=O)O)C(=O)O)cc1 [MMV1580846] |  | 126.077% |  |  | -0.9041% | -2.09%
8 | CCCCCc1ccc(C(=O)NCCn2cc(CCCCCc3c[nH]c(N)n3)nn2)cc1.Cl [MMV1580847] |  | 106.136% |  |  | 2.795% | 5.023%
9 | NC(=O)c1cnc2ccc(S(=O)(=O)c3ccccc3)cc2c1Nc1ccc(O)cc1 [MMV1580848] |  | 51.7682% |  |  | -0.9531% | 29.1599%
10 | C=CCc1cc(Cc2cnc(N)nc2N)cc(OC)c1O [MMV1580849] |  | 47.2094% |  |  | 24.5% and 24.5063% | -6.332%
11 | Fc1ccc(-n2cc(Cn3c(-c4cccc(F)c4)nc4ccccc43)nn2)cc1 [MMV1580850] |  | 34.9853% |  |  | -2.0582% | -24.0097%
12 | CCCCCOc1ccc(/C=C2\Oc3c(ccc(O)c3O)C2=O)c(O)c1 [MMV1580851] |  | 137.102% |  |  | 1.174% | -13.3457%
13 | CCCCc1ccc(-c2cc(C(=O)O)cc(-c3ccc(Cl)cc3)n2)cc1 [MMV1580852] |  | 95.9921% |  |  | -0.3014% | -1.795%
14 | O=C(Nc1cccc(C2=NCCN2)c1)c1ccc(-c2ccc(C(=O)Nc3cccc(C4=NCCN4)c3)cc2)cc1 [MMV1580853] | 134.53% | 3.841% | -0.08% | 7.37% | 0.237% | 89.997%
15 | CCc1cc(O)c(Oc2cccnc2N)cc1F [MMV1580854] |  | 45.6729% |  |  | -1.596% | -13.7258%
16 | O=C(O)c1sccc1S(=O)(=O)n1ccc2cc(Br)ccc21 [MMV1580855] |  | 69.7674% |  |  | 0.195% | 35.1913%
17 | Cc1ccccc1NC(=O)Nc1cccc([N+](=O)[O-])c1 [MMV1581029] |  | 89.4166% |  |  | 1.329% | -16.6439%
18 | CN(C(=O)C1(c2ccc(Cl)cc2)CCC1)c1ccccc1 [MMV1581030] |  | 114.111% |  |  | 0.6829% | -0.7665%
19 | FC(F)(F)Oc1ccc(Nc2ccc3cccc(Cl)c3n2)cc1 [MMV1581032] |  | 85.6723% |  |  | -0.01272% | 18.8065%
20 | N[C@H](CCC(=O)N[C@@H](Cc1c[nH]c2ccccc12)C(=O)O)C(=O)O [MMV1581033] |  | 121.646% |  |  | 0.0006202% | -0.6563%
21 | Cc1c(F)cccc1NC(=O)Nc1ccc(Cl)c(S(=O)(=O)[C@H]2CCCNC2)c1O [MMV1581034] |  | 88.9358% |  |  | 1.533% | -0.4746%
22 | NC(=O)c1ccc(I)c([N+](=O)[O-])c1 [MMV1581035] |  | 321.911% |  |  | 1.539% | -0.2873%

Row | SMILES | Viability d12 (relative viability) [1, 3] | Viability d12 (relative viability) [1, 4] | PGI d5 (relative PGI release) [2, 3] | PGI d12 (relative PGI release) [2, 3] | PGI d5 (relative PGI release) [2, 5] | PGI d12 (relative PGI release) [2, 5]
23 | COc1ccc(C[C@@H](C)[C@@H](C)Cc2ccc(OC)c(OC)c2)cc1OC [MMV1581036] |  | 132.486% |  |  | 0.565% | 2.335%
24 | O=C1[C@H](CC[C@H](O)c2ccc(F)cc2)[C@@H](c2ccc(O)cc2)N1c1ccc(F)cc1 [MMV1581377] |  | 84.8656% |  |  | -0.5323% | 22.6699%
25 | Nc1ccc2oc(=O)ccc2c1I [MMV1581378] |  | 90.9948% |  |  | 0.09331% | -19.2105%
26 | O=c1cc(Nc2ccc3ccccc3c2)[nH]c(=O)[nH]1 [MMV1581546] |  | 58.2809% |  |  | -1.553% | -12.1764%
27 | CC(C)(C)OC(=O)NCc1ccc(C(=O)N[C@H]2CCOC2=O)cc1 [MMV1581547] |  | 30.2259% |  |  | -1.162% | 45.6301%
28 | CC(C)(C)c1cccc(-c2nc3cc(C(=N)N)ccc3[nH]2)c1O [MMV1581548] |  | 76.2328% |  |  | -1.312% | -24.7037%
29 | CCc1nc(N)nc(N)c1C#CCc1ccccc1 [MMV1581549] |  | 82.8379% |  |  | -0.3014% | -5.576%
30 | OC1O[C@H](CSc2ccc(F)cc2)[C@@H](O)[C@H]1O (stereo partly drawn) [MMV1581550] |  | 95.5206% |  |  | -2.303% | -13.5328%
31 | c1ccc(-c2nnc3c4ccccc4c(N4CCNCC4)nn23)cc1 [MMV1581551] |  | 63.6248% |  |  | -2.787% | -25.7664%
32 | O=C(Nc1ccccc1)N(Cc1cc(Br)ccc1O)c1ccc(F)cc1 [MMV1581552] |  | 81.6601% |  |  | -0.185% | -25.2603%
33 | COc1ccc2c(c1)cc(CNC(=O)c1cc3ccccc3o1)n2CC(=O)O [MMV1581553] |  | 73.1434% |  |  | -2.902% | -25.8097%
34 | Nc1cc(N)c2nc(-c3ccccc3)c(Nc3ccc(F)cc3)nc2c1 [MMV1581554] |  | 104.705% |  |  | 4.452% | -9.136%
35 | Nc1cccc(-c2nc(N)nc(NC3Cc4ccccc4C3)n2)c1 [MMV1581555] |  | 66.1297% |  |  | 2.438% | -5.225%
36 | NC(=O)c1[nH]c2ccc(S(N)(=O)=O)cc2c1-c1ccccc1 [MMV1581556] |  | 154.578% |  |  | 1.2% | 0.8963%
37 | O=C(N[C@H](CCS)C(=O)N[C@H](Cc1ccccc1)C(=O)O)c1cc2ccccc2[nH]1 [MMV1581557] |  | 26.3851% |  |  | -0.9852% | -10.8141%
38 | Cc1cccc(C)c1C(=O)Nc1nc(-c2ccccn2)cc2ccccc12 [MMV1581558] |  | 99.5465% |  |  | 1.519% | 3.408%
39 | CC(C)Cn1c(=O)n(C)c(=O)c2c(-c3cncn3C)n(Cc3cccc4ccccc34)nc21 [MMV1581559] |  | 31.7083% |  |  | -0.3605% | 37.1265%
40 | CC(=N)N1CC[C@H](SC2=C(C(=O)O)N3C(=O)[C@@H]([C@@H](C)O)[C@H]3C2)C1 [MMV1582382] |  | 19.8723% |  |  | -2.073% | -11.6677%
41 | CCCCCCCCC(CP(=O)(O)C(C)N)C(=O)O (stereo not drawn) [MMV1582487] |  | 34.1503% |  |  | -0.4977% | -10.5393%
42 | Cl.Nc1nc(-c2ccccc2)nc2c1ncn2[C@@H]1O[C@H](COS(=O)(=O)NC(=O)c2ccccc2O)[C@@H](O)[C@H]1O [MMV1582488] |  | 117.234% |  |  | -1.401% | 11.4821%
43 | Cc1c[nH]c(=O)nc1NCc1ccccc1 [MMV1582489] |  | 140.789% |  |  | -0.6323% | -1.8719%
